Among the test systems are A549 NSCLC; BT-549 breast; CAKI-1 renal; EKVX NSCLC; HL-60(TB) leukemia; K-562 leukemia; LOX IMVI melanoma; MALME-3M melanoma; MCF7 breast; MDA-N; NCI-H460 lung; RPMI-8226 leukemia; SW-620 colon; UO-31 renal.
Common to all, as to test: growth of human tumour cells (NCI), 48 h

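Results reflect a 48-hour exposure of cells in 96-well plates to compound at five concentrations. TGI denotes the concentration required for complete inhibition of growth.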 Some results are limits rather than exact numbers.

For the compound `Nc1ncc(CN2CCOCC2)c(-c2ccccc2O)n1`, the TGI with A549 NSCLC, with BT-549 breast, with CAKI-1 renal, in the assay with EKVX NSCLC, with HL-60(TB) leukemia and in the assay with K-562 leukemia was > 100 µM throughout. Moreover, the TGI in the assay on LOX IMVI melanoma, in the assay on MALME-3M melanoma, with MCF7 breast, with MDA-N, in the assay on NCI-H460 lung and in the assay with RPMI-8226 leukemia was > 100 µM in each case. For the same compound, the TGI with SW-620 colon and with UO-31 renal was > 100 µM each time.

In the case of `CN(C)CCNC(=O)c1cc(-c2nccn2C)nc2ccccc12`, the TGI in the assay with A549 NSCLC, in the assay on BT-549 breast, in the assay on CAKI-1 renal, with EKVX NSCLC, in the assay on HL-60(TB) leukemia and with K-562 leukemia was > 100 µM each time. For the same compound, the TGI with LOX IMVI melanoma, with MALME-3M melanoma, in the assay on MCF7 breast, in the assay with MDA-N, in the assay on NCI-H460 lung and in the assay with RPMI-8226 leukemia was > 100 µM throughout. Further, the TGI with SW-620 colon and in the assay with UO-31 renal was > 100 µM in each case.

`Clc1ccc(-c2nc3ccc(C45CC6CC(CC(C6)C4)C5)cc3[nH]2)cc1`: the TGI was > 100 µM with A549 NSCLC; 98.3 µM with BT-549 breast; > 100 µM with CAKI-1 renal; > 100 µM in the assay with EKVX NSCLC; > 100 µM in the assay with HL-60(TB) leukemia; 0.0221 µM with K-562 leukemia. Moreover, the TGI in the assay on LOX IMVI melanoma was > 100 µM; with MALME-3M melanoma it was > 100 µM; with MCF7 breast it was > 100 µM; in the assay with MDA-N, > 100 µM; in the assay with NCI-H460 lung, > 90.5 µM; in the assay with RPMI-8226 leukemia, > 100 µM. In addition, the TGI in the assay on SW-620 colon and in the assay on UO-31 renal was > 100 µM in each case.

`[O-]c1c[n+](CC[n+]2cc([O-])on2)no1`: the TGI with A549 NSCLC, with BT-549 breast, in the assay on CAKI-1 renal, in the assay with EKVX NSCLC, in the assay on HL-60(TB) leukemia and with K-562 leukemia was > 100 µM throughout. Further, the TGI in the assay with LOX IMVI melanoma, in the assay on MALME-3M melanoma, in the assay on MCF7 breast, in the assay on MDA-N, in the assay on NCI-H460 lung and with RPMI-8226 leukemia was > 100 µM throughout. Also, the TGI in the assay on SW-620 colon and with UO-31 renal was > 100 µM throughout.

As for `C1=NCCNCCN=Cc2ccccc2OCc2cccc(n2)COc2ccccc21`, the TGI in the assay on A549 NSCLC was > 100 µM; in the assay on BT-549 breast it was 44.4 µM; with CAKI-1 renal, > 95.6 µM; with EKVX NSCLC it was > 100 µM; with HL-60(TB) leukemia, 6.84 µM; in the assay with K-562 leukemia it was > 79.5 µM. Moreover, the TGI was 34 µM with LOX IMVI melanoma; > 80.7 µM in the assay with MALME-3M melanoma; > 56.9 µM with MCF7 breast; 31.4 µM in the assay on MDA-N; > 100 µM in the assay with NCI-H460 lung; > 54.1 µM in the assay on RPMI-8226 leukemia. The TGI with SW-620 colon was > 75.9 µM; in the assay with UO-31 renal, > 30.7 µM.

Consider `CN(C)/C=C/c1nnnn1-c1ccc(I)cc1`, for which the TGI in the assay with A549 NSCLC was > 100 µM; in the assay on BT-549 breast it was 92 µM; with CAKI-1 renal, 50.6 µM; in the assay with EKVX NSCLC, 51.3 µM; with HL-60(TB) leukemia, 25.7 µM; with K-562 leukemia it was 44.5 µM. Besides, the TGI with LOX IMVI melanoma was 41.1 µM; with MALME-3M melanoma, 44.7 µM; in the assay with MCF7 breast, 65 µM; in the assay on MDA-N it was 74.2 µM; in the assay with NCI-H460 lung, > 100 µM; in the assay with RPMI-8226 leukemia it was 46.5 µM. Moreover, the TGI in the assay with SW-620 colon amounted to 50.6 µM; in the assay on UO-31 renal it was 39.1 µM.

On to `COC(=O)/C=C(/C(=O)OC)c1c(C)cc2c(C)cc(C)cc(C)c1-2`, for which the TGI was > 84.5 µM with A549 NSCLC; 47.1 µM in the assay with BT-549 breast; > 100 µM in the assay with CAKI-1 renal; > 95.3 µM with EKVX NSCLC; > 100 µM in the assay on HL-60(TB) leukemia; > 100 µM with K-562 leukemia. In addition, the TGI is > 57.8 µM in the assay on LOX IMVI melanoma; > 65.5 µM with MALME-3M melanoma; 36.6 µM with MCF7 breast; 5.16 µM with MDA-N; > 69.9 µM in the assay on NCI-H460 lung; > 100 µM with RPMI-8226 leukemia. Besides, the TGI in the assay on SW-620 colon is > 100 µM; with UO-31 renal, 98.2 µM.

With `COc1ccc(/C=C2\CN(C)CC3C2=NC(=S)NC3c2ccc(OC)cc2)cc1` (stereo not given), the TGI with A549 NSCLC was > 100 µM; with BT-549 breast it was > 100 µM; with CAKI-1 renal it was > 100 µM; with EKVX NSCLC, > 100 µM; in the assay with HL-60(TB) leukemia, 14.8 µM; in the assay with K-562 leukemia, > 100 µM. The TGI with LOX IMVI melanoma is > 100 µM; with MALME-3M melanoma it was > 31.4 µM; with MCF7 breast, > 100 µM; with MDA-N, 3.74 µM; in the assay on NCI-H460 lung it was 59.8 µM; in the assay on RPMI-8226 leukemia, > 24.7 µM. The TGI in the assay with SW-620 colon and with UO-31 renal was > 100 µM each time.

Turning to `COc1cc(/C=C2\CC3C4CC[C@H]5C[C@@H](O)CC[C@]5(C)C4CC[C@]3(C)C2=O)cc(OC)c1OC` (stereo not given in full), the TGI with A549 NSCLC is > 100 µM; with BT-549 breast, > 100 µM; in the assay with CAKI-1 renal, 44.9 µM; in the assay on EKVX NSCLC it was > 100 µM; in the assay with HL-60(TB) leukemia, 43.2 µM; in the assay with K-562 leukemia it was > 100 µM. Moreover, the TGI was 32.6 µM in the assay with LOX IMVI melanoma; 49.1 µM in the assay on MALME-3M melanoma; 28.6 µM in the assay on MCF7 breast; > 100 µM in the assay on MDA-N; 38.9 µM with NCI-H460 lung; 27.8 µM in the assay with RPMI-8226 leukemia. The values for the TGI in the assay with SW-620 colon and in the assay with UO-31 renal were > 100 µM and 31.7 µM, respectively.

On to `CN1CCN(CCCCN2c3ccccc3Sc3ccc(N=[N+]=[N-])cc32)CC1`, for which the TGI in the assay on A549 NSCLC was 29.3 µM; in the assay with BT-549 breast, 26.9 µM; in the assay on CAKI-1 renal, 22.1 µM; in the assay on EKVX NSCLC it was 29.4 µM; in the assay with HL-60(TB) leukemia, 3.69 µM; in the assay with K-562 leukemia, 4.07 µM. Besides, the TGI in the assay with LOX IMVI melanoma is 7.59 µM; in the assay on MALME-3M melanoma, 6.39 µM; in the assay on MCF7 breast, 9.75 µM; in the assay with MDA-N, 6.96 µM; in the assay on NCI-H460 lung it was 17.4 µM; in the assay with RPMI-8226 leukemia, 5.61 µM. For the same compound, the TGI in the assay with SW-620 colon turned out to be 6.85 µM; in the assay on UO-31 renal it was 21.8 µM.

Consider `COc1ccc(NS(=O)c2ccc(OC)cc2)cc1` (stereo not given), for which the TGI in the assay with A549 NSCLC, in the assay with BT-549 breast, with CAKI-1 renal, with EKVX NSCLC, with HL-60(TB) leukemia and in the assay on K-562 leukemia was > 100 µM in each case. Besides, the TGI is > 100 µM with LOX IMVI melanoma; 90.9 µM in the assay on MALME-3M melanoma; > 100 µM with MCF7 breast; > 100 µM in the assay on MDA-N; > 100 µM in the assay with NCI-H460 lung; > 100 µM in the assay on RPMI-8226 leukemia. Besides, the TGI in the assay on SW-620 colon is > 100 µM; in the assay on UO-31 renal, 48.5 µM.

In the case of `CC(=O)N1C2=CCCC2(C)c2ccccc21` (stereo not given), the TGI with A549 NSCLC is > 100 µM; in the assay with BT-549 breast, > 100 µM; in the assay on CAKI-1 renal it was > 100 µM; with EKVX NSCLC, > 100 µM; with HL-60(TB) leukemia it was 83.6 µM; in the assay on K-562 leukemia, > 100 µM. Besides, the TGI in the assay with LOX IMVI melanoma was > 100 µM; in the assay with MALME-3M melanoma, > 100 µM; in the assay with MCF7 breast, > 100 µM; with MDA-N, > 100 µM; in the assay with NCI-H460 lung it was > 100 µM; in the assay on RPMI-8226 leukemia, 45.6 µM. The TGI in the assay with SW-620 colon and with UO-31 renal was > 100 µM each time.

On to `O=C(OC(/C=C/c1ccccc1)P1(=O)N(Cc2ccccc2)[C@@H]2CCCC[C@H]2N1Cc1ccccc1)c1ccccc1` (stereo not given in full), for which the TGI with A549 NSCLC is > 100 µM; in the assay with BT-549 breast, > 55.8 µM; in the assay on CAKI-1 renal, > 100 µM; with EKVX NSCLC, > 100 µM; in the assay on HL-60(TB) leukemia, 7.43 µM; with K-562 leukemia, > 100 µM. Further, the TGI in the assay with LOX IMVI melanoma was > 74.9 µM; in the assay with MALME-3M melanoma it was > 75.5 µM; with MCF7 breast, > 100 µM; in the assay on MDA-N, > 100 µM; in the assay on NCI-H460 lung, > 27.3 µM; with RPMI-8226 leukemia, 6.53 µM. In addition, the TGI in the assay with SW-620 colon is > 100 µM; with UO-31 renal it was 68.6 µM.

Regarding `CCCCCCCCCC1CC(=O)NCC(=O)NC(C(C)C)C(=O)NC(CC(C)C)C(=O)NC(C)C(=O)NC(C(C)C)C(=O)O1` (stereo not given), the TGI in the assay with A549 NSCLC was 40.9 µM; in the assay with BT-549 breast it was > 100 µM; in the assay on CAKI-1 renal, > 100 µM; with EKVX NSCLC it was > 79.9 µM; with HL-60(TB) leukemia, > 100 µM; in the assay on K-562 leukemia, > 53.3 µM. Also, the TGI with LOX IMVI melanoma was 30.8 µM; in the assay with MALME-3M melanoma, > 61.9 µM; in the assay with MCF7 breast it was > 100 µM; in the assay with MDA-N it was > 100 µM; in the assay with NCI-H460 lung it was 23.6 µM; with RPMI-8226 leukemia, > 86.8 µM. The TGI in the assay with SW-620 colon was > 33.6 µM; in the assay on UO-31 renal it was > 100 µM.

For the compound `C/C1=C\CC/C(C)=C/C=C(/C(C)C)CC/C(C(=O)O)=C/CC1`, the TGI in the assay with A549 NSCLC, in the assay on BT-549 breast, in the assay with CAKI-1 renal, in the assay on EKVX NSCLC, with HL-60(TB) leukemia and in the assay with K-562 leukemia was > 100 µM in each case. Moreover, the TGI was > 100 µM in the assay on LOX IMVI melanoma; > 100 µM in the assay on MALME-3M melanoma; > 100 µM in the assay on MCF7 breast; > 100 µM with MDA-N; > 100 µM in the assay on NCI-H460 lung; 62 µM in the assay on RPMI-8226 leukemia. Also, the TGI with SW-620 colon and in the assay on UO-31 renal was > 100 µM in each case.

The values above are taken from PubChem BioAssay (NCI).
